# How the values were obtained:
# [1] = tested on: MIN6 cell masses (spheroids); test: Fluorescent imaging of tumor cell masses (spheroids) of MIN6 cells with mixed fluorescent glucose derivative solutions; type: cell-based, mouse; details: 100 μM CDG+100 μM 2-NBDLG+20 μM 2-TRLG mixed solution, 3 minutes, 6 minutes after start of washout, culture day 17
# Protocol: A fluorescent mixed solution containing 100 μM CDG, 100 μM 2-NBDLG, and 20 μM 2-TRLG (CDG/2-NBDLG/2-TRLG) was administered at 37° C. for 3 minutes to MIN6 cell masses (spheroids) at culture day 17, and fluorescent imaging was conducted.
# 10 μL of a culture solution containing MIN6 cells suspended at a density of 6×10^4 cells/mL was added dropwise onto each glass cover slip, and then, the glass cover slip was left standing for 40 minutes in an incubator for fixation to the glass surface. The cells were cultured by the addition of 3 mL of a culture solution (600 cells/slip). Spheroids were formed by continuing the culture for 15 to 17 days. Half the amount of the culture solution was replaced with a fresh one once every three days.
# The MIN6 cells used were cells kindly provided by professor Junichi Miyazaki (Osaka University) and subcultured 6 to 10 times. Half the amount of the culture solution was replaced with a fresh one once every two days.
# 13.4 g of high glucose-containing Dulbecco's modified Eagle's Medium (DMEM-HG) (Sigma-Aldrich, #D5648), 3.4 g of NaHCO3, and 5 μL of 2-mercaptoethanol were dissolved in 1 L of ultrapure water, and the pH of the solution was adjusted to 7.30 to 7.35 in a CO2 incubator of 37° C. The culture solution was supplemented with fetal bovine serum (Hyclone, Cat# SH30070.03) at a final concentration of 10% and penicillin-streptomycin at a final concentration of 0.5%.
# The whole amount of the 0.5 mg CDG vial was recovered using 0.73 mL in total of 10% DMSO and dissolved by addition to 7.0 ml of a KRB solution for image acquisition according to the method described in Non Patent Literature 2.
# The whole amount of one 0.5 mg 2-NBDLG vial was dissolved in 7.3 mL of a KRB solution for image acquisition.
# The CDG solution and the 2-NBDLG solution were mixed at a ratio of 1:1. The whole amount of the 0.2 mg 2-TRLG vial was recovered using 130 μL in total of DMSO and mixed with 13 ml of the CDG+2-NBDLG mixed solution according to the method described in Non Patent Literature 2 (final concentration: 100 μM CDG+100 μM 2-NBDLG+20 μM 2-TRLG mixed solution). […]
# The glass cover slip with the cultured MIN6 cells was transferred into the KRB solution for image acquisition in a perfusion chamber loaded on a stage of a fluorescence microscope, followed by measurement. […]
# The KRB solution for image acquisition was warmed in advance in an aluminum syringe heater and supplied to the perfusion chamber through hydrostatic pressure. […] Immediately before being introduced to the perfusion chamber, the solution was rewarmed via an inline heater so that the actually measured temperature of the perfusate in an observation region in the chamber was adjusted to 36±1° C. […]
# [2] = tested on: neuronal cells of the substantia nigra pars reticulate of the midbrain; test: Fluorescent imaging of acutely isolated normal neuronal cells; type: cell-based, mouse; details: 3 minutes, 8 minutes after start of washout
# Protocol: The whole amount of the 0.5 mg CLG vial was recovered using 0.73 mL in total of 10% DMSO and dissolved (100 μM) by addition to 14.79 ml of a HEPES solution for image acquisition according to the method described in Non Patent Literature 2. […]
# 150 mM NaCl, 5 mM KCl, 1 mM MgCl2, 2 mM CaCl2, and 10 mM HEPES (the pH of the solution was adjusted to 7.4 with a 1 M tris(2-amino-2-hydroxymethyl-1,3-propanediol) solution). The concentration of glucose was set to 10 mM. 0.1 mM carbenoxolone (Sigma-Aldrich, #C4790) was added thereto for the purpose of inhibiting the entrance and exit of fluorescently labeled glucose by way of gap junction/hemichannel. This HEPES solution for image acquisition was used for preparing the CLG solution and the mixed solution with the additional fluorescent sugar derivative.
# Neuronal cells […] to the method described in the previous reports of the inventors (WO2010/16587 (Patent Literature 2)) and (WO2012/133688 (Patent Literature 4)) and attached to each glass cover slip coated with poly-L-lysine. Then, the glass cover slip was transferred into the HEPES solution for image acquisition in a perfusion chamber loaded on a stage of a fluorescence microscope, followed by observation.
# A silicon plate of 1 mm thickness bored to have a streamline-shaped hole (10 mm wide x 35 mm long) was placed via cover glass onto an aluminum heating control platform (Warner Instruments) having a round hole (diameter: 18 mm) for an objective lens at the bottom, and allowed to be in close contact with the cover glass.
# The HEPES solution for image acquisition was warmed in advance in an aluminum syringe heater and supplied to the perfusion chamber through hydrostatic pressure. The perfusion rate was adjusted to 1.3±0.2 mL/min using a flow rate adjuster. Immediately before being introduced to the perfusion chamber, the solution was rewarmed via an inline heater so that the actually measured temperature of the perfusate in an observation region in the chamber was adjusted to 32.5±1° C. The CLG/2-TRLG mixed solution was able to be supplied in the same way as above and was switched with the HEPES solution for image acquisition using an electromagnetic valve capable of controlling the opening and closing of the channel. The solution was removed using a vacuum pump capable of controlling suction pressure.
# The fluorescence microscope used was NIKON ECLIPS-Ti, and images were acquired with a CCD camera Retiga 2000R.
# CLG and 2-TRLG were each detected using the following filter cassette.
# Excitation 360/40 nm, Dichroic mirror 400 nm, Emission 460/50 nm.
# Excitation 567/15 nm, Dichroic mirror 593 nm, Emission 593 nm Long pass.
# The objective lens used in this method was ×20 dry lens (Nikon Plan S Fluor). The images were acquired at 1600×1200 pixels. […]
# [3] = Fluorescence spectrum (excitation and fluorescence maxima); type: physicochemical
# From the text: The fluorescence spectra of CDG synthesized in (1) and QDG synthesized in (2) were compared with the fluorescence spectrum of 2-NBDLG (manufactured by Peptide Institute, Inc.).
# The numeric values described above the graph denote the fluorescence maximum of CDG and QDG, respectively. It is evident that the fluorescence maximum was largely shifted to shorter wavelength as compared with the fluorescence maximum of 2-NBDLG present around 550 nm.
# [4] = tested on: mouse insulinoma cells (MIN6); test: Increase in fluorescence intensity (uptake) after administration of fluorescent glucose derivative to MIN6 cells, influence of cytochalasin B (CB) or phloretin (PHT), fluorescence microplate reader; type: cell-based; details: QDG final concentration 100 NM as printed, Ex 354 nm, Em 435 nm
Molecule,maximum fluorescence wavelength (Em max) [3],maximum excitation wavelength (Ex max) [3] [nm],other results
"2-Texas Red-2-amino-2-deoxy-L-glucose [Compound 2-TRLG, reference compound]",–,–,"uptake in the central portion of the spheroid [1]: strong uptake; uptake into normal neuronal cells ([2]; 100 μM CDG+20 μM 2-TRLG mixed solution, 14-day-old mouse): not taken into the normal neuronal cells; uptake into normal neuronal cells ([2]; 100 μM CLG+20 μM 2-TRLG mixed solution, 21-day-old mouse): not taken into the normal neuronal cells"
"O=[N+]([O-])c1ccc(NC2C(O)OC(CO)[C@H](O)C2O)c2nonc12 (stereo partly drawn) [Compound 2-NBDLG, 2-[N-(7-nitrobenz-2-oxa-1,3-diazol-4-yl)amino]-2-deoxy-L-glucose, reference compound]",around 550 nm,–,"uptake into cells of MIN6 spheroids, intracellular localization [1]: strongly taken into the cytoplasm"
"Cc1cc2ccc(NC3C(O)OC(CO)[C@@H](O)[C@@H]3O)cc2oc1=O (stereo partly drawn) [Compound 3-MCDG, 2-deoxy-2-(2-oxo-3-methyl-2H-chromen-7-yl)amino-D-glucose]",460.0 nm,361.0,–
"O=c1oc2cc(NC3C(O)OC(CO)[C@@H](O)[C@@H]3O)ccc2cc1C(F)(F)F (stereo partly drawn) [Compound 3-TFMCDG, 2-deoxy-2-(2-oxo-3-trifluoromethyl-2H-chromen-7-yl)amino-D-glucose]",455.0 nm,381.0,–
"Cc1cc(=O)oc2cc(NC3C(O)OC(CO)[C@@H](O)[C@@H]3O)ccc12 (stereo partly drawn) [Compound 4-MCDG, 2-deoxy-2-(2-oxo-4-methyl-2H-chromen-7-yl)amino-D-glucose]",446.0 nm,362.0,–
"O=c1cc(C(F)(F)F)c2ccc(NC3C(O)OC(CO)[C@@H](O)C3O)cc2o1 (stereo partly drawn) [Compound 4-TFMCDG, 2-deoxy-2-(2-oxo-2H-4-trifluoromethyl-chromen-7-yl)amino-D-glucose]",500.0 nm,380.0,–
"O=c1ccc2ccc(NC3C(O)OC(CO)[C@@H](O)[C@@H]3O)cc2[nH]1 (stereo partly drawn) [QDG, 2-deoxy-2-(2-oxo-1,2-dihydroquinolin-7-yl)amino-D-glucose]",423.0 nm,353.5,effect of CB on increase in fluorescence intensity caused by administration ([4]; CB as in Example 11): significantly inhibited; effect of PHT on increase in fluorescence intensity caused by administration ([4]; PHT as in Example 12): more strongly inhibited
"O=c1ccc2ccc(NC3C(O)OC(CO)[C@H](O)[C@H]3O)cc2[nH]1 (stereo partly drawn) [QLG, 2-deoxy-2-(2-oxo-1,2-dihydroquinolin-7-yl)amino-L-glucose]",423.0 nm,353.5,–

# Reference: patent US10509041B2, “Glucose derivative, and cell imaging method and imaging agent using said derivative” (HIROSAKI UNIVERSITY, priority 2014, dated 2019)
